Measured values published in PubChem BioAssay AID434987 (Southern Research Specialized Biocontainment Screening …, 2010).
The source made the active and inactive calls. The rule behind the calls is not given here.

System: M. tuberculosis H37Rv growth inhibition with meropenem
Assay: dose response, H37Rv, with and without meropenem (AID 434987);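 note: growth over 7 days at 37 °C before Alamar Blue read on day 9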
[1] = M. tuberculosis H37Rv growth inhibition, measured here: IC50 without meropenem
[2] = M. tuberculosis H37Rv growth inhibition, measured here: IC90 without meropenem
[3] = measured here: IC90 with meropenem

Compound	IC50	IC50 [1]	IC90 [2]	IC90 [3]
CN(C)c1ccc(/C=N/NC(N)=S)cc1[N+](=O)[O-]	19.9 µM	> 100 µM	> 100 µM	> 50 µM
O=c1oc(-c2ccccc2)nc2sc3c(c12)CCC3	32.2 µM	> 100 µM	> 100 µM	> 100 µM
COCCCn1c(=O)/c(=C\c2cccc(OC)c2OC)s/c1=C(/C#N)C(=O)Nc1ccc(C(=O)O)cc1	5 µM	14.6 µM	31.4 µM	24.6 µM
COc1ccc(Cl)cc1NC(=O)C/C(C)=N/NC(=O)CC#N	7.99 µM	> 100 µM	> 100 µM	> 100 µM
COc1ccc(Cn2c(C)nc3c(c(=O)c4ccccc4n3C)c2=O)cc1	> 100 µM (inactive)	> 100 µM	> 100 µM	> 100 µM
CNc1ccccc1NC(=O)C1CCCN1C(=O)OCc1ccccc1 (stereo unspecified)	> 100 µM (inactive)	> 100 µM	> 100 µM	> 100 µM
COC(=O)c1c(C(=O)OC)c(C)n(Cc2ccco2)c1C	64.4 µM (inactive)	> 100 µM	> 100 µM	> 100 µM
COc1ccccc1NC(=O)Nc1nn(C)c2cccc(OC)c12	4.18 µM	21.1 µM	> 100 µM	> 100 µM
COc1ccc(-c2csc(NC(C)c3nc4cc(Cl)c(Cl)cc4n3CCCO)n2)cc1 (stereo unspecified)	97.3 µM (inactive)	> 100 µM	> 100 µM	> 100 µM
O=C(Nc1ccc2nc3n(c(=O)c2c1)CCCC3)c1cc([N+](=O)[O-])ccc1F	83.8 µM (inactive)	83.1 µM	90 µM	91 µM
CC(C)(C)c1ccc(C(=O)Oc2ccc3c(c2)OCC3=O)cc1	8.64 µM	> 100 µM	> 100 µM	29.4 µM
CCCn1nnnc1NC(=O)COc1ccc(Cl)cc1C	12.4 µM (inactive)	24.3 µM	28.6 µM	42.9 µM
C=CCNC(=S)NC(=O)c1csc([N+](=O)[O-])c1	27.8 µM (inactive)	49 µM	> 50 µM	> 100 µM
CCOc1nnnc2c1sc1nc(N3CCOCC3)c3c(c12)CCCC3	> 100 µM (inactive)	> 100 µM	> 100 µM	> 100 µM
CN1CCN(c2ccccc2NC(=O)c2ccc(-c3ccc(Cl)c(Cl)c3)o2)CC1	7.5 µM	31.8 µM	> 100 µM	> 100 µM
CC(=O)c1sc(N/N=C\c2ccc(N(C)C)cc2)nc1C	49.9 µM (inactive)	> 100 µM	> 100 µM	> 100 µM
O=C1C2CCN(CC2)C1Cc1ccc(OCCOc2ccccc2)cc1 (stereo unspecified)	> 100 µM (inactive)	> 100 µM	> 100 µM	> 100 µM
NNC(=S)Nc1ccc(C(F)(F)F)cc1Cl	> 100 µM (inactive)	> 100 µM	> 100 µM	> 100 µM
O=C(Nc1ccc(OC(=O)c2ccccc2)c(-c2nc3ccccc3s2)c1)c1ccccc1	> 100 µM (inactive)	> 100 µM	> 100 µM	> 100 µM
Cn1cccc1/C=C1/C(=O)NC(=O)N(Cc2ccc(F)cc2)C1=O	23.7 µM (inactive)	46.2 µM	> 50 µM	> 50 µM

Compound	IC50	IC50 [1]	IC90 [2]	IC90 [3]
Cc1ccc(OCC(=O)Nc2ccc(-c3nc4ncccc4o3)cc2)c(C)c1	> 100 µM (inactive)	> 100 µM	> 100 µM	> 100 µM
CCOC(=O)c1cnn(-c2ncnc3sc4c(c23)CCC4)c1N	23.6 µM	> 100 µM	> 100 µM	> 50 µM
COc1cccc(-n2c([S-])c(C(=O)Nc3ccc(S(=O)(=O)N4CCOCC4)cc3)[n+]3cc(C(N)=O)ccc23)c1	> 100 µM (inactive)	> 100 µM	> 100 µM	> 100 µM
Cc1nn(-c2ccccc2)cc1/C=N/NC(N)=S	3.7 µM	> 100 µM	> 100 µM	> 100 µM
CC1CCCN(C(=O)C2CCN(c3ncnc4c3nc3n4CCCCC3)CC2)C1 (stereo unspecified)	46.7 µM (inactive)	89.8 µM	> 100 µM	49.7 µM
Cc1cc(=O)n2c(-c3ccccc3C)n[nH]c2n1	51 µM (inactive)	62.4 µM	> 100 µM	> 100 µM
COc1ccc(OC)c(NC(=O)CS(=O)(=O)c2ccccc2)c1	12.1 µM (inactive)	28.7 µM	> 100 µM	14.3 µM
COC(=O)c1ccc(/C=N\NC(=O)c2ccc(C)cc2Cl)cc1	> 100 µM (inactive)	> 100 µM	> 100 µM	> 100 µM
CN(C)S(=O)(=O)Oc1ccsc1C(=O)Nc1ccc(C(F)(F)F)cc1	> 100 µM (inactive)	> 100 µM	> 100 µM	> 100 µM
COc1ccccc1-c1cc(C(=O)Nc2c(C)n(C)n(-c3ccccc3)c2=O)no1	6.68 µM	39.2 µM	88.1 µM	19.5 µM
c1ccc(-c2n[nH]c3c2CCC3)cc1	3.73 µM	14.4 µM	32.4 µM	46.3 µM
Cc1ccc(-n2nnnc2Sc2nc([N+](=O)[O-])nn2C)c(C)c1	16.5 µM	50.4 µM	> 100 µM	> 100 µM
CCN(CCNC(=O)Nc1ccc(Cl)cc1)c1ccccc1	> 100 µM (inactive)	> 100 µM	> 100 µM	> 100 µM
O=C(Cn1ncc2c3ccccc3n(Cc3ccccc3F)c2c1=O)NCCCN1CCCC1=O	> 100 µM (inactive)	> 100 µM	> 100 µM	> 100 µM
O=c1oc(-c2cccs2)nc2sc3c(c12)CCC3	93 µM (inactive)	> 100 µM	> 100 µM	> 100 µM
Nc1c(Cl)cc(-c2csc(N3CCCC3c3nc4cc(Cl)c(N5CCCCC5)cc4n3CCCO)n2)cc1Cl (stereo unspecified)	97.3 µM (inactive)	> 100 µM	> 100 µM	> 100 µM
COc1ccc(NCC(=O)N/N=C/C(C)c2ccccc2)cc1 (stereo unspecified)	> 100 µM (inactive)	> 100 µM	> 100 µM	> 100 µM
CCNCC(O)c1cccc(O)c1 (stereo unspecified)	> 100 µM (inactive)	> 100 µM	> 100 µM	> 100 µM
O=C1CS/C(=N/N=C2C3CC4CC(C3)CC2C4)N1	11.7 µM (inactive)	23.5 µM	32.5 µM	13.8 µM
CC(C)C(=O)Nc1ccc2c3c(cccc13)CC2	19.4 µM	> 100 µM	> 100 µM	> 100 µM

Compound	IC50	IC50 [1]	IC90 [2]	IC90 [3]
N#CC1=C2C=Cc3ccccc3N2CCCC1=O	21.6 µM	93.3 µM	> 100 µM	> 100 µM
CC(C)(C)c1cc(Cc2ccccc2)[nH]n1	28.2 µM (inactive)	43.1 µM	> 100 µM	> 100 µM
CCOC(=O)COc1nc(-c2ccc(Cl)cc2)cc(-c2ccco2)c1C#N	3.82 µM	> 100 µM	> 100 µM	> 100 µM
COc1cc(NC(=S)NC(=O)c2ccco2)ccc1NC(=O)C(C)C	99.6 µM (inactive)	> 100 µM	> 100 µM	> 100 µM
O=C(Cn1cnc2sc3c(c2c1=O)CCCC3)NCC(=O)Nc1ccccc1F	88.3 µM (inactive)	> 100 µM	> 100 µM	95.5 µM
COc1cc2c(cc1OC)C(c1ccccc1)CC2=O (stereo unspecified)	43.3 µM (inactive)	94 µM	> 100 µM	> 100 µM
COc1ccc(-c2nc(-c3cccc(C)c3)no2)cc1OC	> 100 µM (inactive)	> 100 µM	> 100 µM	> 100 µM
COc1ccc(C2c3c(C)nn(-c4ccccc4)c3NC(=O)N2c2ccccc2)cc1 (stereo unspecified)	17.4 µM	> 100 µM	> 100 µM	> 100 µM
CSc1ncccc1C(=O)Nc1nc2ccc(Oc3ccccc3)cc2s1	> 100 µM (inactive)	> 100 µM	> 100 µM	> 100 µM
COCCCNCCOCCOc1ccc(C)cc1Br	> 100 µM (inactive)	> 100 µM	> 100 µM	> 100 µM
CC(C(=O)Nc1cc([N+](=O)[O-])ccc1Cl)N1CCN(c2ccccc2O)CC1 (stereo unspecified)	> 100 µM (inactive)	> 100 µM	> 100 µM	> 100 µM
Cc1ccc(/C=N/NC(=O)c2cccs2)s1	> 100 µM (inactive)	> 100 µM	> 100 µM	> 100 µM
Cc1ccccc1NC(=O)/C(C#N)=C\c1cc(C)n(-c2ccc(C(=O)O)cc2)c1C	21 µM (inactive)	46.8 µM	76.7 µM	51.1 µM
COc1ccc(Nc2cc(C(=O)NCc3ccco3)c3ccccc3n2)c(OC)c1	> 100 µM (inactive)	> 100 µM	> 100 µM	> 100 µM
COc1ccc(NC(=O)CSc2nncn2C)c([N+](=O)[O-])c1	44.5 µM (inactive)	90.1 µM	> 100 µM	> 100 µM
Cc1ccc(C(=O)OCCN2CCN(c3ncc(C(F)(F)F)cc3Cl)CC2)cc1	> 100 µM (inactive)	> 100 µM	> 100 µM	> 100 µM
O=C1OC(/C=C/c2ccc(Cl)cc2Cl)=NC/1=C\c1cccs1	4.04 µM	14.7 µM	60.1 µM	33.4 µM
Cc1cccc(C)c1OCC(=O)NNC(=O)CNC(=O)c1ccc(OC(F)F)cc1	88.3 µM (inactive)	> 100 µM	> 100 µM	98.1 µM
Cc1ccc(NC(=O)C2(c3ccccc3)CC2(Cl)Cl)cc1C (stereo unspecified)	> 100 µM (inactive)	> 100 µM	> 100 µM	> 100 µM
